Measurements taken from patent US11560385B2, “Proteasome activity enhancing compounds” (Proteostasis Therapeutics, Inc., priority 2018, dated 2023).

The compounds below were run against USP14 (Homo sapiens (Human), UniProt P54578) (assay: Usp14 inhibition assay (Example 5A, A-series compounds)). Conditions: average value from a minimum of two experimental determinations; read-out: Usp14 IC50 Category.
Assay type: biochemical
Text: Example 5A: Usp14 Inhibition Assay
The IC50 values in the Table below represent the average value from a minimum of two experimental determinations.

USP14, sequence (P54578 whole entry, looked up): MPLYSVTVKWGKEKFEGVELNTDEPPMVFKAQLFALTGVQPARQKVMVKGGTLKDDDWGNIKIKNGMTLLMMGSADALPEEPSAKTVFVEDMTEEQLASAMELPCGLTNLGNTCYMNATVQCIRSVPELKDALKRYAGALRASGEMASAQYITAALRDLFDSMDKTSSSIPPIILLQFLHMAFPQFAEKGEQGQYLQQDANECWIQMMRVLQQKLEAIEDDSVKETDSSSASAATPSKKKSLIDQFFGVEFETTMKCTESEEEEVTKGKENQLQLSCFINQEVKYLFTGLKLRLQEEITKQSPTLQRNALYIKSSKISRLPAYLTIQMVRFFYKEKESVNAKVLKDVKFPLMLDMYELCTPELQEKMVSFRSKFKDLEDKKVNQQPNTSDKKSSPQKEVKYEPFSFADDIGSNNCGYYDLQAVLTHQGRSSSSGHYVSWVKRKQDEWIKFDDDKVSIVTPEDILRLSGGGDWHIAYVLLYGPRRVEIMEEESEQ

Q: With `Cc1c(C(=O)CN2C3CCC2CC3)c2ccc(CCCC#N)cc2n1-c1ccc(Cl)cc1` [Example 17A, 4-(3-(2-(7-Azabicyclo[2.2.1]heptan-7-yl)acetyl)-1-(4-chlorophenyl)-2-methyl-1H-indol-6-yl)butanenitrile] as the compound, how does the IC50 read?
A: < 50 nM

Q: `Cc1c(C(=O)CN2C3CCC2CC(O)C3)c2ccc(CCC#N)cc2n1-c1ccc(Cl)cc1` [Example 20A, 3-(1-(4-Chlorophenyl)-3-(2-((1R,3R,5S)-3-hydroxy-8-azabicyclo[3.2.1]octan-8-yl)acetyl)-2-methyl-1H-indol-6-yl)propanenitrile] was tested. Which IC50 did it give?
A: > 100 nM

Q: How did the IC50 turn out when `Cc1c(C(=O)CN2[C@@H]3CC[C@H]2C[C@H](O)C3)c2ccc(CCC#N)cc2n1-c1ccc(Cl)cc1` [Example 21A, 3-(1-(4-Chlorophenyl)-3-(2-((1R,3S,5S)-3-hydroxy-8-azabicyclo[3.2.1]octan-8-yl)acetyl)-2-methyl-1H-indol-6-yl)propanenitrile] was run?
A: 50 to 100 nM

Q: For `Cc1c(C(=O)CN2[C@@H]3CC[C@H]2C[C@@H](O)C3)c2ccc(CC3COC3)cc2n1-c1ccc(Cl)cc1` [Example 22A, 1-(1-(4-Chlorophenyl)-2-methyl-6-(oxetan-3-ylmethyl)-1H-indol-3-yl)-2-((1R,3r,5S)-3-hydroxy-8-azabicyclo[3.2.1]octan-8-yl)ethan-1-one], which IC50 is on record?
A: 50 to 100 nM

Q: `Cc1c(C(=O)CN2C3CCC2CC(O)C3)c2ccc(CCS(=O)(=O)C3CC3)cc2n1-c1ccc(Cl)cc1` [Example 23A, 1-(1-(4-Chlorophenyl)-6-(2-(cyclopropylsulfonyl)ethyl)-2-methyl-1H-indol-3-yl)-2-((1R,3R,5S)-3-hydroxy-8-azabicyclo[3.2.1]octan-8-yl)ethan-1-one] was tested. Which IC50 did it give?
A: < 50 nM

Q: For `Cc1c(C(=O)CN2[C@@H]3CC[C@H]2C[C@H](O)C3)c2ccc(CCS(=O)(=O)C3CC3)cc2n1-c1ccc(Cl)cc1` [Example 24A, 1-(1-(4-Chlorophenyl)-6-(2-(cyclopropylsulfonyl)ethyl)-2-methyl-1H-indol-3-yl)-2-((1R,3s,5S)-3-hydroxy-8-azabicyclo[3.2.1]octan-8-yl)ethan-1-one], which IC50 is on record?
A: 50 to 100 nM

Q: With `Cc1c(C(=O)CN2C3CCC2CC(O)C3)c2ccc(CCCC#N)cc2n1-c1ccc(Cl)cc1` (stereo not shown) [Example 25A, 4-(1-(4-Chlorophenyl)-3-(2-(3-hydroxy-8-azabicyclo[3.2.1]octan-8-yl)acetyl)-2-methyl-1H-indol-6-yl)butanenitrile] as the compound, how does the IC50 read?
A: > 100 nM

Q: For `Cc1c(C(=O)CN2C3CCC2CC(O)C3)c2ccc(CC3COC3)cc2n1-c1ccc(Cl)cc1` [Example 27A, 1-(1-(4-Chlorophenyl)-2-methyl-6-(oxetan-3-ylmethyl)-1H-indol-3-yl)-2-((1R,3S,5S)-3-hydroxy-8-azabicyclo[3.2.1]octan-8-yl)ethan-1-one], which IC50 is on record?
A: > 100 nM

Q: `Cc1c(C(=O)CN2[C@@H]3CC[C@H]2C[C@H](O)C3)c2ccc(CCC3=NCCN3C)cc2n1-c1ccc(Cl)cc1` [Example 28A, 1-(1-(4-Chlorophenyl)-2-methyl-6-(2-(1-methyl-4,5-dihydro-1H-imidazol-2-yl)ethyl)-1H-indol-3-yl)-2-((1R,3S,5S)-3-hydroxy-8-azabicyclo[3.2.1]octan-8-yl)ethan-1-one] was tested. Which IC50 did it give?
A: < 50 nM

Q: `Cc1c(C(=O)CN2C3CCC2CC(O)C3)c2ccc(CCC3=NCCN3C)cc2n1-c1ccc(Cl)cc1` [Example 29A, 1-(1-(4-Chlorophenyl)-2-methyl-6-(2-(1-methyl-4,5-dihydro-1H-bimidazol-2-yl)ethyl)-1H-indol-3-yl)-2-((1R,3R,5S)-3-hydroxy-8-azabicyclo[3.2.1]octan-8-yl)ethan-1-one] was tested. Which IC50 did it give?
A: < 50 nM

Q: `Cc1c(C(=O)CN2C3CCC2CC3)c2ccc(CC#N)cc2n1-c1ccc(Cl)cc1` [Example 30A] was tested. Which IC50 did it give?
A: 50 to 100 nM

Q: `Cc1c(C(=O)CN2[C@@H]3CC[C@H]2C[C@](O)(C(C)C)C3)c2ccc(CCC#N)cc2n1-c1ccc(Cl)cc1` [Example 32A, 3-(1-(4-Chlorophenyl)-3-(2-(3-hydroxy-3-isopropyl-8-azabicyclo[3.2.1]octan-8-yl)acetyl)-2-methyl-1H-indol-6-yl)propanenitrile] was tested. Which IC50 did it give?
A: 50 to 100 nM

Q: `Cc1c(C(=O)CN2C3CCCC2CC3)c2ccc(CCC#N)cc2n1-c1ccc(Cl)cc1` [Example 33A, 3-(3-(2-(8-Azabicyclo[3.2.1]octan-8-yl)acetyl)-1-(4-chlorophenyl)-2-methyl-1H-indol-6-yl)propanenitrile] was tested. Which IC50 did it give?
A: < 50 nM
